Laboratory results taken from publication PMC7195589 (Journal of Ginseng Research, 2019).

Target: muscle-type creatine kinase (CK-MM) (Homo sapiens, UniProt P06732)
Assay: BLI direct binding response at […]

Chain of muscle-type creatine kinase (CK-MM) (P06732 whole entry): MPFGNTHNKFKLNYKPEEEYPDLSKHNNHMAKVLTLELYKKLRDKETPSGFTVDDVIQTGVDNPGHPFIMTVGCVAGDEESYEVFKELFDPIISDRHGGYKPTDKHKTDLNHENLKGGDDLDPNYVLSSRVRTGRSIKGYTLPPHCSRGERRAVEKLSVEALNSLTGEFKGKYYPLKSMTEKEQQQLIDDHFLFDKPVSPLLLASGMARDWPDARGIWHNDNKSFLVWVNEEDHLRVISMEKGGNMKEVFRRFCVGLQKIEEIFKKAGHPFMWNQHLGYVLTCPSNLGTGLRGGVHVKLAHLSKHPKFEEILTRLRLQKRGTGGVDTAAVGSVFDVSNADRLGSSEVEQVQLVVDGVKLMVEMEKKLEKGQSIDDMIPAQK

Row | SMILES | BLI direct binding response at 300 uM (no KD)
1 | CC(C)=CCC[C@](C)(O[C@@H]1O[C@H](CO)[C@@H](O)[C@H](O)[C@H]1O)[C@H]1CC[C@]2(C)[C@@H]1[C@H](O)C[C@@H]1[C@@]3(C)CC[C@H](O)C(C)(C)[C@@H]3CC[C@]12C [GK, ginsenoside compound K] | F1, Rh2, K, and their aglycones (PPT and PPD) displayed gradually direct interaction with CK-MM
2 | CC(C)=CCC[C@](C)(O)[C@H]1CC[C@]2(C)[C@@H]1[C@H](O)C[C@@H]1[C@@]3(C)CC[C@H](O)C(C)(C)[C@@H]3[C@@H](O)C[C@]12C [PPT, 20(S)-protopanaxatriol] | F1, Rh2, K, and their aglycones (PPT and PPD) displayed gradually direct interaction with CK-MM
3 | CC(C)=CCC[C@](C)(O)[C@H]1CC[C@]2(C)[C@@H]1[C@H](O)C[C@@H]1[C@@]3(C)CC[C@H](O[C@@H]4O[C@H](CO)[C@@H](O)[C@H](O)[C@H]4O)C(C)(C)[C@@H]3CC[C@]12C [Rh2, ginsenoside Rh2] | F1, Rh2, K, and their aglycones (PPT and PPD) displayed gradually direct interaction with CK-MM
